Key:
Type in all cases: cell-based
Conditions in all cases: compounds at 50 nM and 500 nM, 24 hours
[1] = target: T1, WEE1 (Homo sapiens, UniProt P30291+Q96SW2); experiment: Western-blot assay, substrate protein degradation in hPBMCs: WEE1
T1 construct: effects of the compounds of the present disclosure on the expression of target proteins in cells; endogenous in cells; host or cells: human PBMCs (hPBMCs)

[2] = target: T2, IKZF1 (Homo sapiens, UniProt Q13422+Q96SW2); experiment: Western-blot assay, substrate protein degradation in hPBMCs: IKZF1
T2 construct: effects of the compounds of the present disclosure on the expression of target proteins in cells; endogenous in cells; host or cells: human PBMCs (hPBMCs)

[3] = target: T3, IKZF2 (Homo sapiens, UniProt Q96SW2+Q9UKS7); experiment: Western-blot assay, substrate protein degradation in hPBMCs: IKZF2
T3 construct: effects of the compounds of the present disclosure on the expression of target proteins in cells; endogenous in cells; host or cells: human PBMCs (hPBMCs)

[4] = target: T4, IKZF3 (Homo sapiens, UniProt Q96SW2+Q9UKT9); experiment: Western-blot assay, substrate protein degradation in hPBMCs: IKZF3
T4 construct: effects of the compounds of the present disclosure on the expression of target proteins in cells; endogenous in cells; host or cells: human PBMCs (hPBMCs)

[5] = target: T5, CK1α (Homo sapiens, UniProt P48729+Q96SW2); experiment: Western-blot assay, substrate protein degradation in hPBMCs: CK1α
T5 construct: effects of the compounds of the present disclosure on the expression of target proteins in cells; endogenous in cells; host or cells: human PBMCs (hPBMCs)

[6] = target: T6, GSPT1 (Homo sapiens, UniProt P15170+Q96SW2); experiment: Western-blot assay, substrate protein degradation in hPBMCs: GSPT1
T6 construct: effects of the compounds of the present disclosure on the expression of target proteins in cells; endogenous in cells; host or cells: human PBMCs (hPBMCs)
T6 sequence (P15170 whole entry): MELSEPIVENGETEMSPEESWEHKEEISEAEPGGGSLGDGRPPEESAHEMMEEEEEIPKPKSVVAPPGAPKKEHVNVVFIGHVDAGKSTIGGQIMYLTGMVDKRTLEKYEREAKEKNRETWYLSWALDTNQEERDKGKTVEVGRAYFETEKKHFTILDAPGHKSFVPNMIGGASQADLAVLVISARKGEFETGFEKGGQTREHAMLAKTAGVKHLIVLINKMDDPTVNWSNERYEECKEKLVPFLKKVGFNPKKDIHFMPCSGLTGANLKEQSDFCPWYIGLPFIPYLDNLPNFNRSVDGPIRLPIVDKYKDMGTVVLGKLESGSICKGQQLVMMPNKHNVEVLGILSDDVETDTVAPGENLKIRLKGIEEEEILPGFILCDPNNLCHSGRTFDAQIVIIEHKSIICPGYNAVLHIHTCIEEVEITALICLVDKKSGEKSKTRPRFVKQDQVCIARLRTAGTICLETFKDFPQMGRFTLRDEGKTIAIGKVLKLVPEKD
T6 sequence (Q96SW2 whole entry): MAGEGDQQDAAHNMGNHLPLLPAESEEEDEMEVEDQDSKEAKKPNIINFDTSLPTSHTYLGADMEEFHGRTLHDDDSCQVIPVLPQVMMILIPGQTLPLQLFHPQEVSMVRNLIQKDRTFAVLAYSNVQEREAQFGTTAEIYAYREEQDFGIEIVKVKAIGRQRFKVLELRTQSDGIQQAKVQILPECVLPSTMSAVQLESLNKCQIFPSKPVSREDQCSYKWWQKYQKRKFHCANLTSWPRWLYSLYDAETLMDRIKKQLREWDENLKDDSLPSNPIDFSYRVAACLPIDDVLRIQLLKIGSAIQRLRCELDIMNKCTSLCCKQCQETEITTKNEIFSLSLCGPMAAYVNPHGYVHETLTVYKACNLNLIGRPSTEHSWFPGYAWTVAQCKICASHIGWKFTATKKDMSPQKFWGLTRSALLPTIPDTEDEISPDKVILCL
T6 sequence (Q16531 whole entry partner): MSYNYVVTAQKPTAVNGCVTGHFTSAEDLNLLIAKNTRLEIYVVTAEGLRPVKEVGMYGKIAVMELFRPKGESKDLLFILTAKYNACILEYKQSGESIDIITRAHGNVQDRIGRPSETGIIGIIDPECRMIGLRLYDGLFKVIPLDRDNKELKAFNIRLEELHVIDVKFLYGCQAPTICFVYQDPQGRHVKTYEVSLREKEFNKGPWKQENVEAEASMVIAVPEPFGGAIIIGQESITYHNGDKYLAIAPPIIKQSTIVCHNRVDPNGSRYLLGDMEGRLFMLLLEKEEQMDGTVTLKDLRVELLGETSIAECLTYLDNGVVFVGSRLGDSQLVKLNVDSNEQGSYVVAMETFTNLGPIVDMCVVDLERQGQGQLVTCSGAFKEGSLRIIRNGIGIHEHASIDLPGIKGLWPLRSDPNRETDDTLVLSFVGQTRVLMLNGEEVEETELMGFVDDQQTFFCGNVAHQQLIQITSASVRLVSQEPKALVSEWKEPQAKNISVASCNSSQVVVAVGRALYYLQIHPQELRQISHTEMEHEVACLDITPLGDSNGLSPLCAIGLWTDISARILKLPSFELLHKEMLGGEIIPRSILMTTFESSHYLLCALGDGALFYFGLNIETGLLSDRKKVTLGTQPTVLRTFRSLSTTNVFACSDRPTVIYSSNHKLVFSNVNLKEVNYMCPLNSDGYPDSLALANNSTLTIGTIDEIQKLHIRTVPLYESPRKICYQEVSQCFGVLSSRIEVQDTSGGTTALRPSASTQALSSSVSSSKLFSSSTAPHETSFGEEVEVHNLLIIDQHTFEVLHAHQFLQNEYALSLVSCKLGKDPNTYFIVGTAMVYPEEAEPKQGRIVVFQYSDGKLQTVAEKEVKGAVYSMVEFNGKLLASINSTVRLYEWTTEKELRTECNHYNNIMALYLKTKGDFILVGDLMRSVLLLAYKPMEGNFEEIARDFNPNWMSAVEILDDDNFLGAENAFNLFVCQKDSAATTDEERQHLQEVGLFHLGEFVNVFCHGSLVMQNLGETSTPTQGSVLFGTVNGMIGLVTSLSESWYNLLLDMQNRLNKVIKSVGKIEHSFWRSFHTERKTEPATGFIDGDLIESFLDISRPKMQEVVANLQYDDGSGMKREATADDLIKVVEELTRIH

T5 sequence (P48729 whole entry): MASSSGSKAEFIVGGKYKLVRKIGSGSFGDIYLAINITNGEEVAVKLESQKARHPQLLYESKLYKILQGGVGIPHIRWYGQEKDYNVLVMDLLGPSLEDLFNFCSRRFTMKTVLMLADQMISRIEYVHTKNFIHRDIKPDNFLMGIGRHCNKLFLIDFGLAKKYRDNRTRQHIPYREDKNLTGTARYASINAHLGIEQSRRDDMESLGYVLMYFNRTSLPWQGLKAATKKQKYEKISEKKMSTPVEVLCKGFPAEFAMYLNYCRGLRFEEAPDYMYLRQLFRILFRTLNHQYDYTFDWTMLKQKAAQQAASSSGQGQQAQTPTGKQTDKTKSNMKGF
T5 sequence (Q96SW2 whole entry): as the sequence (Q96SW2 whole entry) above
T5 sequence (Q16531 whole entry partner): as the sequence (Q16531 whole entry partner) above
T2 sequence (Q13422 whole entry): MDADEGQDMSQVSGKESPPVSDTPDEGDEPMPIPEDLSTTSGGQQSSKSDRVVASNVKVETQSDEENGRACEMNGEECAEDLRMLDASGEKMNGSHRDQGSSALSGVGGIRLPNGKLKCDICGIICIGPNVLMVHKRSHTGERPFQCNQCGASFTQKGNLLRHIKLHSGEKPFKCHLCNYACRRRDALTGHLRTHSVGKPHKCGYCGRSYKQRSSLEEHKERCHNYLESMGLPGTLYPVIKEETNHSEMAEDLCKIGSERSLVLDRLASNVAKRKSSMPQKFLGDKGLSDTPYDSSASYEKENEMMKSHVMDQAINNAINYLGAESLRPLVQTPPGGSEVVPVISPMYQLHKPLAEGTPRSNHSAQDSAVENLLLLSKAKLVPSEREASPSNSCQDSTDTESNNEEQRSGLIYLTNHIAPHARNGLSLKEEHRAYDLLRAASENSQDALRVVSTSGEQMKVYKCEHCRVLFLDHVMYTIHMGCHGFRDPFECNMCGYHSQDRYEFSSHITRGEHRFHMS
T2 sequence (Q96SW2 whole entry): as the sequence (Q96SW2 whole entry) above
T2 sequence (Q16531 whole entry partner): as the sequence (Q16531 whole entry partner) above
T1 sequence (P30291 whole entry): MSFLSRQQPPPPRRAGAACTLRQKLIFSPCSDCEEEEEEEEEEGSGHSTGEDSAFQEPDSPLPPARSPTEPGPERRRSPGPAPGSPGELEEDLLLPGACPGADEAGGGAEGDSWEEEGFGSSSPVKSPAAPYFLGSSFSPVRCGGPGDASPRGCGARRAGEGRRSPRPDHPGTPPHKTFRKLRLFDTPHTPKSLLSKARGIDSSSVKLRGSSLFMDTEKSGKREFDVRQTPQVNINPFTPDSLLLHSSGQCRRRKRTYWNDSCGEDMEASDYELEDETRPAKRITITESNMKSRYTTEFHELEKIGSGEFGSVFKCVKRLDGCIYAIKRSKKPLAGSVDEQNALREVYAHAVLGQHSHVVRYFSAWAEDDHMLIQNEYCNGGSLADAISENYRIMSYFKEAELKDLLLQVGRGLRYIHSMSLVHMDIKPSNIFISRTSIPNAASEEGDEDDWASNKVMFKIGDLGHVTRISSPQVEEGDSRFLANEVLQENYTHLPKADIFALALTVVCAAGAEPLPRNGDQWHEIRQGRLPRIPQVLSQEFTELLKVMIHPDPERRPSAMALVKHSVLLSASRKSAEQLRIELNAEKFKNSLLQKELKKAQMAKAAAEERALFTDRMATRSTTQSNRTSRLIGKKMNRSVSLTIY
T1 sequence (Q96SW2 whole entry): as the sequence (Q96SW2 whole entry) above
T1 sequence (Q16531 whole entry partner): as the sequence (Q16531 whole entry partner) above
T4 sequence (Q9UKT9 whole entry): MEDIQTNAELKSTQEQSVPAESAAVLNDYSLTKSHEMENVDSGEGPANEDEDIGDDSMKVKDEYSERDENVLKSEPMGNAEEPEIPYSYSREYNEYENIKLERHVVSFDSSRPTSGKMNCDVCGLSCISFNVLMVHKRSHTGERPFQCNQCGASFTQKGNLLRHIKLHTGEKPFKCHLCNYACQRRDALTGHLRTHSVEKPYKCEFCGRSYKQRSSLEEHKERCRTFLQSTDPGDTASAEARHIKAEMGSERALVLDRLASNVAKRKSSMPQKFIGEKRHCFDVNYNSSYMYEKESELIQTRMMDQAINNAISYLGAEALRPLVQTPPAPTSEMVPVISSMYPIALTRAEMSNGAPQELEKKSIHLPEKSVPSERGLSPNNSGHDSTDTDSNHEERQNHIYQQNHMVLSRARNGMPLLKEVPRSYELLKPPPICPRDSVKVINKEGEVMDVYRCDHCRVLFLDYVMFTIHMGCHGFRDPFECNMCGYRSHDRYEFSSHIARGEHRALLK
T4 sequence (Q96SW2 whole entry): as the sequence (Q96SW2 whole entry) above
T4 sequence (Q16531 whole entry partner): as the sequence (Q16531 whole entry partner) above

SMILES | WEE1 substrate protein remaining % [1] | IKZF1 substrate protein remaining % [2] | IKZF2 substrate protein remaining % [3] | IKZF3 substrate protein remaining % [4] | CK1α substrate protein remaining % [5] | GSPT1 substrate protein remaining % [6]
Cn1cc(C2=CCN(Cc3ccc4c(c3)C(=O)N(N3CCC(=O)NC3=O)C4=O)CC2)c2ccc(F)cc21 [GT-05276, 2-(2,4-dioxotetrahydropyrimidin-1(2H)-yl)-5-((4-(6-fluoro-1-methyl-1H-indol-3-yl)-3,6-dihydropyridin-1(2H)-yl)methyl)isoindoline-1,3-dione] | B ("B" is defined as 80%< substrate protein remaining %≤ 100%) | B ("B" is defined as 80%< substrate protein remaining %≤ 100%) | B ("B" is defined as 80%< substrate protein remaining %≤ 100%) | A ("A" is defined as 0% ≤ substrate protein remaining % ≤ 80%) | B ("B" is defined as 80%< substrate protein remaining %≤ 100%) | A ("A" is defined as 0% ≤ substrate protein remaining % ≤ 80%)
Cc1ccc(N2CCN(Cc3ccc4c(c3)C(=O)N(N3CCC(=O)NC3=O)C4=O)CC2)s1 [GT-05309, 2-(2,4-dioxotetrahydropyrimidin-1(2H)-yl)-5-((4-(5-methylthiophen-2-yl)piperazin-1-yl)methyl)isoindoline-1,3-dione] | B ("B" is defined as 80%< substrate protein remaining %≤ 100%) | B ("B" is defined as 80%< substrate protein remaining %≤ 100%) | B ("B" is defined as 80%< substrate protein remaining %≤ 100%) | B ("B" is defined as 80%< substrate protein remaining %≤ 100%) | B ("B" is defined as 80%< substrate protein remaining %≤ 100%) | A ("A" is defined as 0% ≤ substrate protein remaining % ≤ 80%)
Cc1ccc(C2=CCN(Cc3ccc4c(c3)C(=O)N(N3CCC(=O)NC3=O)C4=O)CC2)s1 [GT-05310, 2-(2,4-dioxotetrahydropyrimidin-1(2H)-yl)-5-((4-(5-methylthiophen-2-yl)-3,6-dihydropyridin-1(2H)-yl)methyl)isoindoline-1,3-dione] | B ("B" is defined as 80%< substrate protein remaining %≤ 100%) | B ("B" is defined as 80%< substrate protein remaining %≤ 100%) | B ("B" is defined as 80%< substrate protein remaining %≤ 100%) | B ("B" is defined as 80%< substrate protein remaining %≤ 100%) | B ("B" is defined as 80%< substrate protein remaining %≤ 100%) | A ("A" is defined as 0% ≤ substrate protein remaining % ≤ 80%)
O=C1CCN(N2C(=O)c3ccc(CN4CCN(c5ccsc5)CC4)cc3C2=O)C(=O)N1 [GT-05313, 2-(2,4-dioxotetrahydropyrimidin-1(2H)-yl)-5-((4-(thiophen-3-yl)piperazin-1-yl)methyl)isoindoline-1,3-dione] | B ("B" is defined as 80%< substrate protein remaining %≤ 100%) | B ("B" is defined as 80%< substrate protein remaining %≤ 100%) | B ("B" is defined as 80%< substrate protein remaining %≤ 100%) | B ("B" is defined as 80%< substrate protein remaining %≤ 100%) | B ("B" is defined as 80%< substrate protein remaining %≤ 100%) | A ("A" is defined as 0% ≤ substrate protein remaining % ≤ 80%)
Cc1cscc1C1CCN(Cc2ccc3c(c2)C(=O)N(N2CCC(=O)NC2=O)C3=O)CC1 [GT-05314, 2-(2,4-dioxotetrahydropyrimidin-1(2H)-yl)-5-((4-(4-methylthiophen-3-yl)piperidin-1-yl)methyl)isoindoline-1,3-dione] | B ("B" is defined as 80%< substrate protein remaining %≤ 100%) | B ("B" is defined as 80%< substrate protein remaining %≤ 100%) | B ("B" is defined as 80%< substrate protein remaining %≤ 100%) | B ("B" is defined as 80%< substrate protein remaining %≤ 100%) | B ("B" is defined as 80%< substrate protein remaining %≤ 100%) | A ("A" is defined as 0% ≤ substrate protein remaining % ≤ 80%)
O=C1CCN(N2C(=O)c3ccc(CN4CCC(c5ccco5)CC4)cc3C2=O)C(=O)N1 [GT-05315, 2-(2,4-dioxotetrahydropyrimidin-1(2H)-yl)-5-((4-(furan-2-yl)piperidin-1-yl)methyl)isoindoline-1,3-dione] | B ("B" is defined as 80%< substrate protein remaining %≤ 100%) | B ("B" is defined as 80%< substrate protein remaining %≤ 100%) | B ("B" is defined as 80%< substrate protein remaining %≤ 100%) | B ("B" is defined as 80%< substrate protein remaining %≤ 100%) | B ("B" is defined as 80%< substrate protein remaining %≤ 100%) | A ("A" is defined as 0% ≤ substrate protein remaining % ≤ 80%)
Cc1cscc1C1=CCN(Cc2ccc3c(c2)C(=O)N(N2CCC(=O)NC2=O)C3=O)CC1 [GT-05316, 2-(2,4-dioxotetrahydropyrimidin-1(2H)-yl)-5-((4-(4-methylthiophen-3-yl)-3,6-dihydropyridin-1(2H)-yl)methyl)isoindoline-1,3-dione] | B ("B" is defined as 80%< substrate protein remaining %≤ 100%) | B ("B" is defined as 80%< substrate protein remaining %≤ 100%) | B ("B" is defined as 80%< substrate protein remaining %≤ 100%) | B ("B" is defined as 80%< substrate protein remaining %≤ 100%) | B ("B" is defined as 80%< substrate protein remaining %≤ 100%) | A ("A" is defined as 0% ≤ substrate protein remaining % ≤ 80%)
O=C1CCN(N2C(=O)c3ccc(CN4CC=C(c5ccco5)CC4)cc3C2=O)C(=O)N1 [GT-05317, 2-(2,4-dioxotetrahydropyrimidin-1(2H)-yl)-5-((4-(furan-2-yl)-3,6-dihydropyridin-1(2H)-yl)methyl)isoindoline-1,3-dione] | B ("B" is defined as 80%< substrate protein remaining %≤ 100%) | B ("B" is defined as 80%< substrate protein remaining %≤ 100%) | B ("B" is defined as 80%< substrate protein remaining %≤ 100%) | B ("B" is defined as 80%< substrate protein remaining %≤ 100%) | B ("B" is defined as 80%< substrate protein remaining %≤ 100%) | A ("A" is defined as 0% ≤ substrate protein remaining % ≤ 80%)
O=C1CCN(N2C(=O)c3ccc(CN4CCN(c5ccc(Cl)cn5)CC4)cc3C2=O)C(=O)N1 [GT-05350, 5-((4-(5-chloropyridin-2-yl)piperazin-1-yl)methyl)-2-(2,4-dioxotetrahydropyrimidin-1(2H)-yl)isoindoline-1,3-dione] | B ("B" is defined as 80%< substrate protein remaining %≤ 100%) | B ("B" is defined as 80%< substrate protein remaining %≤ 100%) | B ("B" is defined as 80%< substrate protein remaining %≤ 100%) | B ("B" is defined as 80%< substrate protein remaining %≤ 100%) | B ("B" is defined as 80%< substrate protein remaining %≤ 100%) | A ("A" is defined as 0% ≤ substrate protein remaining % ≤ 80%)
Cc1cccc(N2CCN(Cc3ccc4c(c3)C(=O)N(N3CCC(=O)NC3=O)C4=O)CC2)n1 [GT-05352, 2-(2,4-dioxotetrahydropyrimidin-1(2H)-yl)-5-((4-(6-methylpyridin-2-yl)piperazin-1-yl)methyl)isoindoline-1,3-dione] | B ("B" is defined as 80%< substrate protein remaining %≤ 100%) | B ("B" is defined as 80%< substrate protein remaining %≤ 100%) | A ("A" is defined as 0% ≤ substrate protein remaining % ≤ 80%) | B ("B" is defined as 80%< substrate protein remaining %≤ 100%) | B ("B" is defined as 80%< substrate protein remaining %≤ 100%) | A ("A" is defined as 0% ≤ substrate protein remaining % ≤ 80%)
O=C1CCN(N2Cc3cc(CN4CCN(c5nccc(Cl)c5F)CC4)ccc3C2=O)C(=O)N1 [GT-05358, 1-(5-((4-(4-chloro-3-fluoropyridin-2-yl)piperazin-1-yl)methyl)-1-oxoisoindolin-2-yl)dihydropyrimidine-2,4(1H,3H)-dione] | B ("B" is defined as 80%< substrate protein remaining %≤ 100%) | B ("B" is defined as 80%< substrate protein remaining %≤ 100%) | B ("B" is defined as 80%< substrate protein remaining %≤ 100%) | B ("B" is defined as 80%< substrate protein remaining %≤ 100%) | B ("B" is defined as 80%< substrate protein remaining %≤ 100%) | A ("A" is defined as 0% ≤ substrate protein remaining % ≤ 80%)

Source: patent publication EP4722207A1, “OXOISOINDOLINYL-SUBSTITUTED TETRAHYDROPYRIMIDINEDIONE DERIVATIVE AND USE THEREOF” (Gluetacs Therapeutics (Shanghai) Co., Ltd., priority 2023, dated 2024)
